IC50 data for 19 compounds are collected here from patent US8614201B2 (Janssen Pharmaceutica NV, priority 2009, dated 2013).

Human TRPA1, sequence (O75762 whole entry): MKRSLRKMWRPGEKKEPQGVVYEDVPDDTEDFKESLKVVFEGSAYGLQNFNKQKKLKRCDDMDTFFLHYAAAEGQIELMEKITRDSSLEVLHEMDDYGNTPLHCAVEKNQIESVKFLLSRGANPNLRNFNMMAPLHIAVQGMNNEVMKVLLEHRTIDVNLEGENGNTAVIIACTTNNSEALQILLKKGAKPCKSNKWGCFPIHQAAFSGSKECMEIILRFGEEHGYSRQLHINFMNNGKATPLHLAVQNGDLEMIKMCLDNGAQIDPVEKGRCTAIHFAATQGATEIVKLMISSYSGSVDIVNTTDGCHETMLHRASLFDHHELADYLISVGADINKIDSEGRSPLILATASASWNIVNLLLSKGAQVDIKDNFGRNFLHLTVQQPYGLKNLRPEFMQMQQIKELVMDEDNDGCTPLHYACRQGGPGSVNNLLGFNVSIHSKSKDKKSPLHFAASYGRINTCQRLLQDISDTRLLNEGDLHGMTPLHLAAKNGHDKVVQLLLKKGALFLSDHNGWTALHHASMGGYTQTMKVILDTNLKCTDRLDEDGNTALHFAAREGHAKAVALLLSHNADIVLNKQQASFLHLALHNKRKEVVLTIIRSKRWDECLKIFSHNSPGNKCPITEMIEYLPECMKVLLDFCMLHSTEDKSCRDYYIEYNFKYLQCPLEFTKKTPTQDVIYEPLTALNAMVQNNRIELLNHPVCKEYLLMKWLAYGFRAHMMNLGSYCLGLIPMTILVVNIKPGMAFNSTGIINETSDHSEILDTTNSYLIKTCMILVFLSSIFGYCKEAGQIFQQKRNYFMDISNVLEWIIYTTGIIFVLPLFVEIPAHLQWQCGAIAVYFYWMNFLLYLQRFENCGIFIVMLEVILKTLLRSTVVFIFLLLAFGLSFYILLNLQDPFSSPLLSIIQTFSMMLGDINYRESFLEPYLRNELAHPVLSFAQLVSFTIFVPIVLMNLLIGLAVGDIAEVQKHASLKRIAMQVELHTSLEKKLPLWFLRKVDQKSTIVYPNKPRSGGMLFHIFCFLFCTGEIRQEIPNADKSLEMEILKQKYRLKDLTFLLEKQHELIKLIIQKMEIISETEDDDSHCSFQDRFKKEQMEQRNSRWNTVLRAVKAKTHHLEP

In the assay the target is Human TRPA1 (Homo sapiens, UniProt O75762). The assay can be described thus: Assay 1: In vitro cellular testing of TRPA1 modulation (CHO-TREx, Fluo-3 calcium fluorescence, AITC agonist). The format is cell-based. Set-up: expressed in transfected cells; host or cells: CHO-TREx cells (Invitrogen), vector pcDNA4/TO. Particulars: CHO-TREx cells expressing human TRPA1; Fluo-3 fluorescence (FLIPR/Tetra); agonist 15 μM allyl isothiocyanate (AITC); 30 minute antagonist incubation. The protocol:
Assay 1: In Vitro Cellular Testing of TRPA1 Modulation
Human TRPA1 (NCBI accession number NM_007332.1) was cloned into pcDNA4/TO. CHO-TREx cells (Invitrogen, Carlsbad, Calif.) were stably transfected with pcDNA4/TO-TRPA1 using lipofection to generate a clonal cell line that expressed human TRPA1 in a tetracycline-inducible manner. Culture medium used was Ham's F-12 supplemented with 10% fetal bovine serum, 2 mM L-glutamine, 5 μg/ml blasticidin and 200 μg/ml zeocin. Cells were seeded in black-walled clear-bottom 96-well plates at a density of 50,000 cells per well and cultured overnight at 37° C. with 5% CO2 in culture medium supplemented with 1 μg/ml tetracycline. On the day of the experiment, cells were washed 3 times with HEPES buffered saline (in mM: NaCl 137, MgCl2 0.5, KCl 2, dextrose 5, CaCl2 2 and HEPES 10; pH 7.4). Cells were then loaded with calcium-sensitive fluorescent dye by incubation in the presence of 4 μM Fluo-3 AM (TefLabs, Austin, Tex.) at room temperature in the dark for 60 minutes. After incubation with dye, cells were washed in assay buffer and, if appropriate, antagonists were added at this time. Following a further 30 minute incubation, cells were assayed using a Fluorometric Imaging Plate Reader (FLIPR™) or a Tetra (both manufactured by Molecular Devices, CA) to simultaneously monitor Fluo-3 fluorescence in all wells (λexcitation=488 nm, λemission=540 nm). Changes in fluorescence were monitored for 3 minutes after the addition of 15 μM allyl isothiocyanate (AITC) as an agonist. Concentration-dependence of receptor blocking was determined by exposing each well of cells in duplicate rows of a 96-well plate to a serial dilution of test compound. The concentration series usually started at 10 μM with a three-fold serial decrement in concentration. The magnitude of the response to agonist challenge was determined by measuring the fluorescence before and 3 minutes after the addition of the agonist. The degree of blocking was determined by comparing the response to that of negative (no added antagonist) and positive (10 μM ruthenium red) control wells. Data were analyzed using a non-linear regression program (Origin; OriginLab, MA) to fit the concentration-response data to a Hill function. Antagonist potencies were determined as the concentration required to produce 50% reduction in the response as compared to the negative and positive controls.
As to `O=C(NCc1cc(-c2ccc(C(F)(F)F)cc2)nc(N2CCN(c3ccccc3F)CC2)c1)[C@@H]1C=CCN1S(=O)(=O)c1ccc(F)cc1` [Example 326, (2S)—N-({2-[4-(2-Fluorophenyl)piperazin-1-yl]-6-[4-(trifluoromethyl)phenyl]pyridin-4-yl}methyl)-1-[(4-fluorophenyl)sulfonyl]-2,5-dihydro-1H-pyrrole-2-carboxamide], the IC50 came to 5970 nM.

As to `O=C(NCc1cc(NCc2ccccn2)nc(-c2ccc(C(F)(F)F)cc2)c1)[C@@H]1CCCN1S(=O)(=O)c1ccc(Cl)s1` [Example 347, 1-[(5-Chlorothiophen-2-yl)sulfonyl]-N-({2-[(pyridin-2-ylmethyl)amino]-6-[4-(trifluoromethyl)phenyl]pyridin-4-yl}methyl)-L-prolinamide], the 50% inhibitory concentration (IC50) stood at 518 nM.

As to `O=C(NCc1cc(-c2ccc(C(F)(F)F)cc2)ncn1)[C@@H]1CCCN1S(=O)(=O)c1ccc(OC(F)(F)F)cc1` [Example 149, 1-(4-Trifluoromethoxybenzenesulfonyl)-pyrrolidine-2S-carboxylic acid [6-(4-trifluoromethylphenyl)-pyrimidin-4-ylmethyl]-amide], the IC50 was found to be 3650 nM.

On to `O=C(NCc1cc(-c2ccc(C(F)(F)F)cc2)ncn1)[C@@H]1CC(F)(F)CN1S(=O)(=O)c1ccc(Cl)s1` [Example 180, (2S)-1-(5-Chloro-thiophene-2-sulfonyl)-4,4-difluoro-pyrrolidine-2-carboxylic acid [6-(4-trifluoromethyl-phenyl)-pyrimidin-4-ylmethyl]-amide], for which the IC50 amounted to 228 nM.

With `O=C(NCc1ccnc(-c2ccc(C(F)(F)F)cc2)c1)[C@@H]1C=CCN1S(=O)(=O)c1ccc(F)cc1` [Example 127, 1-(4-Fluorobenzenesulfonyl)-2,5-dihydro-1H-pyrrole-2S-carboxylic acid [2-(4-trifluoromethylphenyl)-pyridin-4-ylmethyl]-amide], the IC50 turned out to be 42 nM.

On to `O=C(NCc1ccnc(-c2ccc(OC(F)(F)F)cc2)c1)[C@@H]1CC(F)(F)CN1S(=O)(=O)c1ccc(Cl)s1` [Example 132, 1-(5-Chloro-thiophene-2-sulfonyl)-4,4-difluoro-pyrrolidine-2S-carboxylic acid [2-(4-trifluoromethoxy-phenyl)-pyridin-4-ylmethyl]-amide], for which the IC50 was 117 nM.

Turning to `CN(C)c1ccc(-c2cccc(CNC(=O)[C@@H]3CCCN3S(=O)(=O)c3ccc(F)cc3)c2)cc1` [Example 93, 1-(4-Fluorobenzenesulfonyl)-pyrrolidine-2S-carboxylic acid (4′-dimethylaminobiphenyl-3-ylmethyl)-amide], the concentration for half-maximal inhibition (IC50) is 86 nM.

With `CC(Nc1cc(CNC(=O)[C@@H]2C=CCN2S(=O)(=O)c2ccc(Cl)s2)cc(-c2ccc(C(F)(F)F)cc2)n1)c1ccccc1` (stereo partly drawn) [Example 407, (2S)-1-[(5-Chlorothiophen-2-yl)sulfonyl]-N-({2-[(1-phenylethyl)amino]-6-[4-(trifluoromethyl)phenyl]pyridin-4-yl}methyl)-2,5-dihydro-1H-pyrrole-2-carboxamide], the half-inhibitory concentration (IC50) came to 185 nM.

With `O=C(NCc1cc(-c2ccc(C(F)(F)F)cc2)ncn1)[C@@H]1CCCN1S(=O)(=O)c1ccc(F)c(F)c1` [Example 148, 1-(3,4-Difluorobenzenesulfonyl)-pyrrolidine-2S-carboxylic acid [6-(4-trifluoromethylphenyl)-pyrimidin-4-ylmethyl]-amide], the IC50 was determined as 28 nM.

Consider `O=C(NCc1cc(NCc2ccccc2)nc(-c2ccc(C(F)(F)F)cc2)c1)[C@@H]1CCCN1S(=O)(=O)c1ccc(F)cc1` [Example 322, N-({2-(Benzylamino)-6-[4-(trifluoromethyl)phenyl]pyridin-4-yl}methyl)-1-[(4-fluorophenyl)sulfonyl]-L-prolinamide], for which the half-inhibitory concentration (IC50) is 1180 nM.

With `Cn1ccc2cc(-c3cccc(CNC(=O)[C@@H]4CCCN4S(=O)(=O)c4ccc(F)cc4)c3)ccc21` [Example 96, 1-(4-Fluoro-benzenesulfonyl)-pyrrolidine-2S-carboxylic acid 3-(1-methyl-1H-indol-5-yl)-benzylamide], the IC50 turned out to be 432 nM.

On to `O=C(NCc1cc(-c2ccc(C(F)(F)F)cc2)nc(N2CCN(Cc3cccnc3)CC2)c1)[C@@H]1CCCN1S(=O)(=O)c1ccc(F)cc1` [Example 328, 1-[(4-Fluorophenyl)sulfonyl]-N-({2-[4-(pyridin-3-ylmethyl)piperazin-1-yl]-6-[4-(trifluoromethyl)phenyl]pyridin-4-yl}methyl)-L-prolinamide], for which the IC50 worked out at 682 nM.

With `O=C(NCc1cccc(-c2ccccc2C(F)(F)F)c1)[C@@H]1CCCN1S(=O)(=O)c1ccc(F)cc1` [Example 67, 1-(4-Fluorobenzenesulfonyl)-pyrrolidine-2S-carboxylic acid (2′-trifluoromethylbiphenyl-3-ylmethyl)-amide], the IC50 came out at 515 nM.

Take `CC(NC(=O)[C@@H]1CCCN1S(=O)(=O)c1ccc(F)cc1)c1cc(-c2ccc(C(F)(F)F)cc2)ncn1` (single isomer, unassigned) [Example 181, (1S*,2S)-1-(4-Fluoro-benzenesulfonyl)-pyrrolidine-2-carboxylic acid {1-[6-(4-trifluoromethyl-phenyl)-pyrimidin-4-yl]-ethyl}-amide]: the IC50 was found to be 602 nM.

As to `CC(Nc1cc(CNC(=O)[C@@H]2CC(F)(F)CN2S(=O)(=O)c2ccc(F)cc2)cc(-c2ccc(C(F)(F)F)cc2)n1)c1ccccc1` (stereo partly drawn) [Example 410, 4,4-Difluoro-1-[(4-fluorophenyl)sulfonyl]-N-({2-[(1-phenylethyl)amino]-6-[4-(trifluoromethyl)phenyl]pyridin-4-yl}methyl)-L-prolinamide], the 50% inhibitory concentration (IC50) was found to be 1260 nM.

For the compound `Cc1ccccc1S(=O)(=O)N1CCC[C@H]1C(=O)NCc1cc(-c2ccc(C(F)(F)F)cc2)ncn1` [Example 155, 1-(Toluene-2-sulfonyl)-pyrrolidine-2S-carboxylic acid [6-(4-trifluoromethylphenyl)-pyrimidin-4-ylmethyl]-amide], the IC50 stood at 1020 nM.

On to `O=C(NCc1cc(-c2ccc(C(F)(F)F)cc2)nc(N2CCN(Cc3ccccc3OC(F)(F)F)CC2)n1)[C@@H]1CCCN1S(=O)(=O)c1ccc(F)cc1` [Example 51, 1-(4-Fluoro-benzenesulfonyl)-pyrrolidine-2S-carboxylic acid [2-[4-(2-trifluoromethoxy-benzyl)-piperazin-1-yl]-6-(4-trifluoromethyl-phenyl)-pyrimidin-4-ylmethyl]-amide], for which the IC50 amounted to 148 nM.

Take `O=C(NCc1cccc(-c2ccccc2)c1)[C@@H]1CCCN1S(=O)(=O)c1ccc(F)cc1` [Example 98, 1-(4-Fluorobenzenesulfonyl)-pyrrolidine-2S-carboxylic acid (biphenyl-3-ylmethyl)-amide]: the IC50 was determined as 381 nM.

Turning to `O=C(NCc1cc(-c2ccc(C(F)(F)F)cc2)nc(N2CCN(Cc3ccccn3)CC2)c1)[C@@H]1CC(F)(F)CN1S(=O)(=O)c1ccc(Cl)s1` [Example 375, 1-[(5-Chlorothiophen-2-yl)sulfonyl]-4,4-difluoro-N-({2-[4-(pyridin-2-ylmethyl)piperazin-1-yl]-6-[4-(trifluoromethyl)phenyl]pyridin-4-yl}methyl)-L-prolinamide], the IC50 amounted to 1940 nM.

As a reminder, the IC50 is the concentration that inhibits the measured activity by half.
